Laboratory results taken from paper PMC6742641, “Design, synthesis and biological evaluation of a series of CNS penetrant HDAC inhibitors structurally derived from amyloid-β probes” (Scientific Reports, 2019).
“Also recorded” adds a separate entry of the source. Read-outs that look alike come from different tables or passages of the source.

Experiments:
[1] = In vivo brain pharmacokinetic study; conditions: ICR male mice, IV, 2 mg/kg
Method: The study was approved by the Institutional Animal Care and Use of Committee of Daegu-Gyeongbuk Medical Innovation Foundation (DGMIF) and performed in accordance with protocols approved by the Institutional Animal Care and Use of Committee. […] Brain and plasma samples were collected at 0.5 and 1 h time points. Brain samples were homogenized at a 1:4 ratio of sample weight (g) to PBS volume (mL). Aliquots (20 μL) of brain homogenate were mixed with 180 μL of acetonitrile, vortexed and centrifuged at 15,000 rpm for 5 minutes at 4 °C. The resulting supernatants were used for LC-MS/MS analysis. Mice plasma samples were collected at 0.5 and 1 h time points. 180 μL of acetonitrile was added to 20 μL of plasma samples, vortexed and centrifuged at 15,000 rpm for 5 minutes at 4 °C.

[2] = tested on: SH-SY5Y cells; assay: Soft agar colony formation assay; assay type: cell-based, human; conditions: 3 weeks, 3 μM
Method: Cells (10^4 cells/well) were seeded in 6 well plate with 1.2% agar. After 12 h incubation, cells were treated with the indicated concentrations of compound 9b or DMSO at 37 °C in 5% humidified CO2 for 3 weeks with continuously changing medium every week. After medium was thrown away, colonies were stained with 0.05% crystal violet for 10 min.

[3] = tested on: Ac-Histone H3; assay: Western blot of acetylation status in SH-SY5Y cells; assay type: cell-based, human; conditions: 24 h, 0.5 to 5 μM
Method: (§1) Cells were seeded in 100 mm culture dishes (1 × 10^6 cells/dish), and allowed to attach overnight. Inhibitors were added at the concentrations as indicated and the cells were incubated for an additional 24 hours. For comparison, cells were also incubated with DMSO (0.5%) for 24 hours. Cells were harvested in ice-cold lysis buffer (23 mM Tris-HCl pH 7.6, 130 mM NaCl, 1% NP-40, 1% sodium deoxycholate, 0.1% SDS), and 30 µg of lysate per lane was separated by SDS-PAGE and followed by transferring to a PVDF membrane (Bio-Rad). The membrane was blocked with 5% skim milk in TBST, and then incubated with the corresponding antibody (Ac-α-tubulin, α-tubulin, Ac-Histone H3, Histone H3 or β-actin). After binding of an appropriate secondary antibody coupled to horseradish peroxidase, proteins were visualized by ECL chemiluminescence according to the instructions of the manufacturer (GE healthcare, USA).

[4] = tested on: Ac-α-tubulin; assay: as above; assay type: cell-based, human; conditions: 24 h, 0.5 to 5 μM
Method: as §1

[5] = PAMPA-BBB assay; assay type: in vitro ADME
Method: BBB-PAMPA was conducted by manufacturer’s instruction (pION Inc, MA, USA). […] Transmembrane side to donor part was coated with BBB lipid solution and add 200 μL acceptor buffer in upper part of PAMPA sandwich plate.

Brain concentration (ng/mL) 0.5 h ([1]; 0.5 h, n = 4): 414.6 ± 88.7 ng/mL
Brain concentration (ng/mL) 1 h ([1]; 1 h, n = 4): 52.9 ± 1.6 ng/mL
Kp at 0.5 h ([1]; mouse, brain/plasma, 0.5 h, read-out: Brain/plasma ratio 0.5 h): 9
Kp at 1 h ([1]; mouse, brain/plasma, 1 h, read-out: Brain/plasma ratio 1 h): 7.2
concentration at 0.5 h ([1]; mouse, brain, 0.5 h, n = 4, read-out: Brain concentration (ng/mL) 0.5 h): 415 ng/mL
concentration at 1 h ([1]; mouse, brain, 1 h, n = 4, read-out: Brain concentration (ng/mL) 1 h): 52.9 ng/mL
concentration at 0.5 h ([1]; mouse, plasma, 0.5 h, n = 4, read-out: Plasma concentration (ng/mL) 0.5 h): 46 ± 13.9 ng/mL
concentration at 1 h ([1]; mouse, plasma, 1 h, n = 4, read-out: Plasma concentration (ng/mL) 1 h): 7.3 ± 1 ng/mL
Pe (10^−6 cm/s) ([5]; 25 μM, pH 7.4, 4 h, 25 °C, mean ± SD, three independent experiments): 27.15 10^−6 cm/s
CNS +/− classification ([5]; PAMPA-BBB): CNS + (CNS + indicates (Pe > 10))
Papp at 4 h, 25 μM ([5]; PAMPA, 25 μM, pH 7.4, 4 h, 25 °C, mean ± SD, three independent experiments, read-out: Pe): 27.1 ± 1.59 ×10⁻⁶ cm/s
Compound: O=C(NO)c1ccc(-c2nc3ccccc3s2)cc1 [Compound 9b]
anchorage-independent cell growth (colony formation) [2]: almost completely inhibited
acetylation status of Histone H3 [3]: more efficiently promoted the acetylation of Histone H3 and α-tubulin than compound 9a; also recorded: significantly induced the accumulation of acetylated Histone H3
acetylation status of α-tubulin [4]: more efficiently promoted the acetylation of Histone H3 and α-tubulin than compound 9a; also recorded: dose-dependently increased
